Patent US20260159481A1, “INDOLE DERIVATIVE WITH SUBSTITUENT AND PHARMACEUTICAL USE” (MITOIMMUNE THERAPEUTICS INC., priority 2023, published 2026)

Assays:
[1] = Pharmacokinetics in plasma after oral administration to ICR mice; type: in vivo; conditions: oral 10 mg/kg
Protocol: Pharmacokinetic parameters may include the maximum plasma concentration (Cmax), the time to reach the maximum plasma concentration (Tmax), the area under the plasma concentration-time curve (AUCinf), and a half-life (t1/2).
Example Compound 27 was orally administered to ICR mice at a dose of 10 mg/kg. Drug concentrations in the plasma of mice were measured by HPLC-MS/MS spectroscopy 0.5, 1, 2, 4, 8, or 24 hours after administration.
The comparative example compound was orally administered to ICR mice at a dose of 10 mg/kg. The drug concentrations in the plasma of the mice were measured by HPLC-MS/MS 0.5, 1, 2, 4, 8, or 24 hours after administration.

[2] = system: hippocampal neurons (HT-22); experiment: Protective effect against cell death due to RSL3 (LDH release), HT-22; type: cell-based; conditions: Mus musculus, RSL3 0.3 μM, 24 hours
Protocol: (§1) To confirm cell death protection effects on cardiac cells, adrenal medullary cells, renal fibroblasts, retinal epithelial cells, lung epithelial cells, renal proximal tubular epithelial cells, hippocampal neurons and fibroblasts, each type of cells were seeded at 4×10^3 to 1.2×10^4 cells/well in a 96-well plate and cultured for 18 to 24 hours. The example compounds were diluted to have the final concentration of 0.001, 0.003, 0.01, 0.3, 1, 3, and 10 μM, respectively, and then added to different wells and cultured for 15 to 20 minutes. […] To confirm the cell death protection effect of the example compounds, the degree of extracellular secretion of lactate dehydrogenase (LDH) was measured using a cytotoxicity LDH assay kit [Dojindo; CK12]. Briefly, at the end of 24-hour treatment of each type of cells with RSL3, 70 μL of the supernatant was taken from the 96-well plate where the cells were cultured and transferred to a new 96-well plate. The assay buffer included in the kit was added at 70 μL/well (equal to that of the sample) and the plate was covered with foil to block light and allowed to react for 15 to 20 minutes at room temperature. While observing a color change of the sample, 35 µL/well of a stop solution was added, an absorbance at 490 nm was measured using an iD3 spectrophotometer, and an EC50 value was calculated.

[3] = system: adrenal medullary cells (PC-12); experiment: Protective effect against cell death due to RSL3 (LDH release), PC-12; type: cell-based; conditions: Rattus norvegicus, RSL3 0.3 μM, 24 hours
Protocol: as §1

cardiac cells (H9C2) [4] = experiment: Protective effect against t-BHP-induced cell death in cardiac cells (LDH release); type: cell-based; conditions: Rattus norvegicus, t-BHP 400 PM, 2 hours, read-out: EC50, protective effect against cell death due to t-BHP induction
Protocol: To confirm a protective effect on cardiac cells, H9C2 cells were seeded at 1.5×10^4 cells/well in a 96-well plate and cultured for 24 hours. The example compounds were diluted to have the final concentration of 0.001, 0.01, 0.03, 0.1, 0.3, 1, 3, 10, and 30 PM, respectively, and then added to different wells, and the resulting cells were cultured for 15 to 20 minutes. Tert-butyl hydroperoxide (t-BHP) was treated to have the final concentration of 400 PM, and the resulting cells were cultured for 2 hours. To confirm the cell death protection effect of each compound, the degree of extracellular secretion of lactate dehydrogenase (LDH) was measured using a cytotoxicity LDH assay kit [Dojindo; CK12]. Briefly, after 2 hours of t-BHP treatment on the cells, 70 μL of the supernatant was taken from the 96-well plate where the cells were cultured and transferred to a new 96-well plate. The assay buffer included in the kit was added at 70 μL/well (equal to that of the sample) and the plate was covered with foil to block light and allowed to react for 15 minutes at room temperature. While observing a color change of each sample, 35 μL/well of a stop solution was added, an absorbance at 490 nm was measured using an iD3 spectrophotometer, and an EC50 value was calculated.

[5] = system: renal fibroblasts (NRK-49F); experiment: Protective effect against cell death due to RSL3 (LDH release), NRK-49F; type: cell-based; conditions: Rattus norvegicus, RSL3 3 μM, 24 hours
Protocol: as §1

[6] = system: retinal epithelial cells (ARPE-19); experiment: Protective effect against cell death due to RSL3 (LDH release), ARPE-19; type: cell-based; conditions: Homo sapiens, RSL3 0.3 μM, 24 hours
Protocol: as §1

[7] = system: renal proximal tubular epithelial cells (HK2); experiment: Protective effect against cell death due to RSL3 (LDH release), HK2; type: cell-based; conditions: Epithelial cell, RSL3 0.3 μM, 24 hours
Protocol: as §1

[8] = system: lung epithelial cells (MLE-12); experiment: Protective effect against cell death due to RSL3 (LDH release), MLE-12; type: cell-based; conditions: MLE12, RSL3 1 μM, 24 hours
Protocol: as §1

cardiac cells (H9C2) [9] = experiment: Protective effect against cell death due to RSL3 (LDH release), H9C2; type: cell-based; conditions: Rattus norvegicus, RSL3 0.5 μM, 24 hours
Protocol: as §1

fibroblasts (NIH/3T3) = experiment: Protective effect against cell death due to RSL3 (LDH release), NIH/3T3; type: cell-based; conditions: Mus musculus, NIH3T3, RSL3 3 μM, 24 hours
Protocol: as §1

Cmax ([1]; mouse, plasma): 4440 ng/mL
Tmax ([1]; mouse, plasma): 1 h
half-life ([1]; mouse, plasma): 2.83 h
AUC(0-inf) ([1]; mouse, plasma, read-out: area under the plasma concentration-time curve (AUCinf)): 25100 ng·h/mL
concentration at 0.5 h ([1]; mouse, plasma, 0.5 hr): 3830 ng/mL
concentration at 1 h ([1]; mouse, plasma, 1 hr): 4440 ng/mL
concentration at 2 h ([1]; mouse, plasma, 2 hr): 3780 ng/mL
concentration at 4 h ([1]; mouse, plasma, 4 hr): 2800 ng/mL
concentration at 8 h ([1]; mouse, plasma, 8 hr): 1080 ng/mL
concentration at 24 h ([1]; mouse, plasma, 24 hr): 1 ng/mL
exposure (AUCinf) relative to the comparative example compound [1]: approximately 5 times
half-life relative to the comparative example compound [1]: approximately 2 times
maximum plasma concentration (Cmax) relative to the comparative example compound [1]: approximately 2 times
AUCinf ([1]; plasma): 25,115 ng · hr/mL
Structure (SMILES): OCCOCc1cc(NC2CCOCC2)c2[nH]c(-c3ccccc3)cc2c1 [Example 27, 2-((2-phenyl-7-((tetrahydro-2H-pyran-4-yl)amino)-1H-indol-5-yl)methoxy)ethan-1-ol]
EC50 [2]: ≤ 100 nM
EC50 [3]: ≤ 100 nM
EC50 (cardiac cells (H9C2) [4]): ≤ 300 nM
EC50 [5]: ≤ 100 nM
EC50 [6]: ≤ 100 nM
EC50 [7]: ≤ 100 nM
EC50 [8]: 100 to 1000 nM
EC50 (cardiac cells (H9C2) [9]): ≤ 100 nM
EC50 (fibroblasts (NIH/3T3)): ≤ 100 nM
